Experimental findings from patent publication US20100256160A1, “METHOD OF ADMINISTERING AN ANTITUMOR COMPOUND” (NERVIANO MEDICAL SCIENCES S.R.L., priority 2006, published 2010) are described below.

Broadly, the clearance is the volume of plasma or blood freed of the substance per unit of time. A higher clearance goes with efficient removal. The term half-life denotes how long it takes for the measured level to halve.

One data set deals with T1, Aurora kinases (AKs) A (Homo sapiens, UniProt O14965).
T1 sequence (O14965 1-403): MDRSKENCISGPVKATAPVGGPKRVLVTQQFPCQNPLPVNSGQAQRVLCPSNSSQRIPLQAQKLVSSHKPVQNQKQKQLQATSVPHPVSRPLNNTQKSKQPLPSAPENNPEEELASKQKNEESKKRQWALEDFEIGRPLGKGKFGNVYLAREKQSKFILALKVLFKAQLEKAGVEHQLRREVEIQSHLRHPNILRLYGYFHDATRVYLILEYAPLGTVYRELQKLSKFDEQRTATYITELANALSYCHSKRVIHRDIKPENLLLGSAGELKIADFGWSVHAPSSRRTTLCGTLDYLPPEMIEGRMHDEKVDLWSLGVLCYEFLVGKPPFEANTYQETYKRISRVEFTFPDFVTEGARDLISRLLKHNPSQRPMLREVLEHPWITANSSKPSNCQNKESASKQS
As to the kind of experiment: Inhibitory potency towards Aurora kinase A. Format: biochemical.

For a further data set, the target named is T2, Aurora kinases (AKs) C (Homo sapiens, UniProt Q9UQB9).
T2 sequence (Q9UQB9 1-309): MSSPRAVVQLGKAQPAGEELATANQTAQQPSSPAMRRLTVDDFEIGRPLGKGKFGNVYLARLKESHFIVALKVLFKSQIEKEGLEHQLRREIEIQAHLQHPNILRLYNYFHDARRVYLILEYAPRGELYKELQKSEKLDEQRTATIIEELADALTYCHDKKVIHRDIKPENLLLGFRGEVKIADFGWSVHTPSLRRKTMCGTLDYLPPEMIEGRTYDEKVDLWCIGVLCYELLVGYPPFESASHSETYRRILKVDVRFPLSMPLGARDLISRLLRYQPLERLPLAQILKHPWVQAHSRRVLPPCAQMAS
The experiment in a line: Inhibitory potency towards Aurora kinase C. Format: biochemical.

A further data set has as its target Aurora kinases (AKs) B (Homo sapiens, UniProt Q96GD4). The experiment in a line: Inhibitory potency towards Aurora kinase B. The data set is classed as biochemical.
Data set [1] in a line: Pharmacokinetics in phase I trial, 24 hours iv infusion once every two weeks. Format: in vivo, human. The settings on record: patients. As for the experimental part:
(§1) A phase I pharmacological trial was carried out to investigate the iv administration of Compound 1 given in 24 hours infusion once every two weeks in patients with refractory or resistant solid tumours, including lung, colorectal, gastro-oesophageal, cervix, Ewing, renal, head and neck, mesothelioma and cancer of unknown primary.
Neutropenia was the dose-limiting toxicity for Compound 1 and easily managed. […] Biomarker modulation occurred at ≧500 mg/m^2. […] The recommended dose for Phase II was 500 mg/m^2. Furthermore the protocol was amended to increase the dose up to 750 mg/m^2 with prophylactic treatment with G-CSF.

In data set [2] the test system is patients with advanced/metastatic solid tumors. As to the kind of experiment: Two-center phase I dose escalation trial, 6-hours IV infusion weekly for 3 consecutive weeks in a 28-day cycle. Format: in vivo. As for the experimental part: The infusion duration was selected to reduce the potential for Cmax related toxicities. Forty patients were treated with doses ranging from 45 to 400 mg/m^2. […] In order to define the recommended dose for phase II, 330 mg/m^2 dose level was investigated.

The test system of data set [3] is histone H3 phosphorylation. As to the kind of experiment: Histone H3 phosphorylation in skin biopsies of patients, phase I trial 24 hours infusion. Format: in vivo, human. The settings on record: 24 h iv infusion. As for the experimental part: as §1
(§2) Forty patients were enrolled. Seven DLs were explored (45, 90, 180, 360, 500, 650 and 580 mg/m^2). […] Except one G3 diarrhea, pyrexia and fatigue in one patient each, all other drug related non-hematological adverse events were G1 or 2 (fatigue, anorexia, nausea, vomiting, and ejection fraction decreased). One DLT (neutropenic infection) in the 360 mg/m^2, 2 DLTs (neutropenic infection and febrile neutropenia) at DL 650 mg/m^2 and 2 DLTs at 580 mg/m^2 (G 3 liver enzyme increase and febrile neutropenia) were reported. The MTD has been exceeded at 650 and 580 mg/m^2.

Data set [4] has as its system patients with hematopoietic malignancies such as relapsed/refractory acute leukemia. The experiment in a line: Phase I study, 3-hour intravenous infusion for three consecutive days every two weeks. Format: in vivo, human. The settings on record: 100, 150, 210, and 280 mg/m^2/daily; ten patients. As for the experimental part: A phase I pharmacological study to investigate the iv administration of Compound 1 given in a 3-hour intravenous infusion for three consecutive days every two weeks in patients with hematopoietic malignancies such as relapsed/refractory acute leukemia. Ten patients have been enrolled in 4 dose levels (100, 150, 210, and 280 mg/m^2/daily). […] Dose escalation is still proceeding.

The test system of data set [5] is patients with refractory or resistant solid tumours. As to the kind of experiment: Phase I dose escalation trial, 24 hours iv infusion once every two weeks: toxicity and response. The data set is classed as in vivo. As for the experimental part:
as §1
This was a dose escalation study. Cohorts of 3-6 patients were sequentially allotted to progressively higher dose levels (DL) of Compound 1 based on the number of dose limiting toxicities (DLTs) observed. As per protocol, definition of DLTs were grade (G) 4 neutropenia lasting >7 days, febrile neutropenia, neutropenic infection, any G3 or 4 non-hematological drug related toxicities during the first cycle of treatment.
as §2

Chain of Aurora kinases (AKs) B (Q96GD4 whole entry, the tested form may be a part): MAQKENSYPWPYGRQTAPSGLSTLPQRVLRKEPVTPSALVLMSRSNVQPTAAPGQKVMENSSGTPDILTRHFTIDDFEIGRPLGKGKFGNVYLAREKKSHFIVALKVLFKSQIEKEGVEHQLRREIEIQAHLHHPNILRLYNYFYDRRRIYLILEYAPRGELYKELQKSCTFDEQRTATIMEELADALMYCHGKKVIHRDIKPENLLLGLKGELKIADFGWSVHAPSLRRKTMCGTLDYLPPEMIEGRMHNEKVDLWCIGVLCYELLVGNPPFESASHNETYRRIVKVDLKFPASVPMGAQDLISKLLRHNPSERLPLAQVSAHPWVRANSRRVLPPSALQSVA

With `CO[C@@H](C(=O)N1Cc2n[nH]c(NC(=O)c3ccc(N4CCN(C)CC4)cc3)c2C1)c1ccccc1` [Compound 1, N-{5-[(2R)-2-methoxy-2-phenylethanoyl]-1,4,5,6-tetrahydropyrrolo[3,4-c]pyrazol-3-yl}-4-(4-methylpiperazin-1-yl)benzamide], the “inhibitory potency towards Aurora kinase A” value on Aurora kinases (AKs) A was “significant inhibitory potency”. For the same compound, the “inhibitory potency towards Aurora kinase C” value at Aurora kinases (AKs) C is reported as “significant inhibitory potency”. The “inhibitory potency towards Aurora kinase B” value against Aurora kinases (AKs) B was “significant inhibitory potency”. This compound yielded a clearance in data set [1] (human, in vivo) of 5 to 7.5 mL/min/kg. Besides, the half-life in data set [1] (human, in vivo, read-out: terminal half-life) is 18 to 30 h. For the same compound, in data set [1], the pharmacokinetic behavior result was “dose-proportional and time-independent behavior”; the “pharmacokinetic linearity and variability” value is given as “linear with low inter-individual variability”; the volume of distribution is on record as 2-4 times total body water. For the same compound, the “uncomplicated grade 3 neutropenia” value in data set [2] (250 mg/m^2) is “frequently reported”. The drug-related deaths entry in data set [2] (45 to 400 mg/m^2) was “No drug-related deaths”. The hematological toxicity reported entry in data set [2] (45 to 400 mg/m^2, 6-hours IV infusion days 1, 8, 15 every 28 days) is “Uncomplicated neutropenia of short duration”. The “drug-related non hematological toxicities, severity” value in data set [2] (G1/G2 diarrhea, nausea, vomiting, fatigue, anorexia and blood pressure increase) was “mild or moderate”. Besides, the “number of patients with stable disease as best response” value in data set [2] (forty patients treated) is on record as “Seven”. Also, the “number of stable-disease patients with response lasting more than seven months” value in data set [2] (of the seven patients with stable disease) is recorded as “four”. Also, the “dose at which inhibition of histone H3 phosphorylation (biomarker modulation) was evident” value in data set [3] was no less than 500 mg/m^2. Further, in data set [4], the tolerability of regimen entry is given as “well tolerated”. The “MTD (exceeded at 650 and 580 mg/m^2)” value in data set [5] (24 h iv infusion every two weeks) is on record as less than 580 mg/m^2. In data set [5] (forty patients enrolled), the “number of pts with stable disease as best response” value is “Nine”. Besides, in data set [5] (human, in vivo, iv), the “recommended dose for Phase II” value was 500 mg/m^2. In data set [5] (in vivo, iv), the dose-limiting toxicity entry is recorded as “Neutropenia” and the “non-hematological drug related adverse events, severity” value is listed as “mild or moderate”. Moreover, in data set [5] (of the nine pts with stable disease), the “number of stable-disease pts with response duration >6 months” value is on record as 3.
